Here are results for twelve compounds from ChEMBL document CHEMBL1149199 (Bioorg Med Chem Lett, 2004).

Molecules are shown by their SMILES. pKi: −log10 of the molar value.

Assay [1] addresses T1, Sodium-dependent serotonin transporter (Homo sapiens, UniProt P31645).
Description: Ability to inhibit [3H]paroxetine binding to cloned human serotonin (5-HT) transporter
Assay [2] deals with T2, Sodium-dependent noradrenaline transporter (Homo sapiens, UniProt P23975).
Assay [3] deals with T3, Sodium-dependent dopamine transporter (Homo sapiens, UniProt Q01959). The assay can be described thus: Ability to inhibit [3H]mazindol binding to cloned human dopamine (DA) transporter.
Assay [4] deals with T2, Sodium-dependent noradrenaline transporter. The assay can be described thus: Ability to inhibit [3H]nisoxetine binding to cloned human norepinephrine (NE) transporter; Average of two experiments.
The target of assay [5] is T1, Sodium-dependent serotonin transporter. This is another data set of the same source.
Description: Ability to inhibit [3H]paroxetine binding to cloned human serotonin (5-HT) transporter; Average of two experiments
The target of assay [6] is T3, Sodium-dependent dopamine transporter.
Description: Ability to inhibit [3H]mazindol binding to cloned human dopamine (DA) transporter; Average of two experiments

T2 sequence (P23975 whole entry): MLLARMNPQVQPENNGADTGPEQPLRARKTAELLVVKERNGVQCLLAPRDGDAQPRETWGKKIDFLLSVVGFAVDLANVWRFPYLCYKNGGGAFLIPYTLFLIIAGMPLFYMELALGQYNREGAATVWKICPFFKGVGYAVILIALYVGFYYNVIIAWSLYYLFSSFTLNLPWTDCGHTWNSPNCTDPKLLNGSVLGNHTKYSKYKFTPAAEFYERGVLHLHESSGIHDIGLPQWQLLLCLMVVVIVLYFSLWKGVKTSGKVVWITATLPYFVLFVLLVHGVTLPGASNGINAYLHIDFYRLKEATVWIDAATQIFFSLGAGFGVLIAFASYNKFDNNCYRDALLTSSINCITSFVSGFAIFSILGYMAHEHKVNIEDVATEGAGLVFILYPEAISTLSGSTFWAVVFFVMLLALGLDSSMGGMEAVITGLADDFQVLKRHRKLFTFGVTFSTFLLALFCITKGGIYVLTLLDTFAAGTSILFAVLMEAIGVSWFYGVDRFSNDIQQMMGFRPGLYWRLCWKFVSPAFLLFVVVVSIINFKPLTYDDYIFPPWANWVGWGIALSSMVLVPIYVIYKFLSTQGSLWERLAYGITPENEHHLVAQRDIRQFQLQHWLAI
T3 sequence (Q01959 whole entry): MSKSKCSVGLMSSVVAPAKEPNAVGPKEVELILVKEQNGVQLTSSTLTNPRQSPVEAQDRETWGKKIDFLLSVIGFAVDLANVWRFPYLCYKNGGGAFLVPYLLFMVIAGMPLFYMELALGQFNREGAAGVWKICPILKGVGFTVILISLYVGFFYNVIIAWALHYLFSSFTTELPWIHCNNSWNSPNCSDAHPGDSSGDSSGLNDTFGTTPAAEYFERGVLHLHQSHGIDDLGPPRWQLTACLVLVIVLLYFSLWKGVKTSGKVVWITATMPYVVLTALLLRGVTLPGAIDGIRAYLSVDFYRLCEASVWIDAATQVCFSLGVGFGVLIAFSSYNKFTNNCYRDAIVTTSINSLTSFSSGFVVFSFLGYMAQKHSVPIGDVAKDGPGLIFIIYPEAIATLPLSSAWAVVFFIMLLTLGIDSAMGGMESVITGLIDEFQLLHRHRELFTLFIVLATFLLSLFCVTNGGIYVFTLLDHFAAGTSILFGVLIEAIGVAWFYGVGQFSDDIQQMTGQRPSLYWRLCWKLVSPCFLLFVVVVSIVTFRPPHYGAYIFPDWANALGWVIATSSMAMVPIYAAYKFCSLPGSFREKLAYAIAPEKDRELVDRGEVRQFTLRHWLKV
T1 sequence (P31645 whole entry): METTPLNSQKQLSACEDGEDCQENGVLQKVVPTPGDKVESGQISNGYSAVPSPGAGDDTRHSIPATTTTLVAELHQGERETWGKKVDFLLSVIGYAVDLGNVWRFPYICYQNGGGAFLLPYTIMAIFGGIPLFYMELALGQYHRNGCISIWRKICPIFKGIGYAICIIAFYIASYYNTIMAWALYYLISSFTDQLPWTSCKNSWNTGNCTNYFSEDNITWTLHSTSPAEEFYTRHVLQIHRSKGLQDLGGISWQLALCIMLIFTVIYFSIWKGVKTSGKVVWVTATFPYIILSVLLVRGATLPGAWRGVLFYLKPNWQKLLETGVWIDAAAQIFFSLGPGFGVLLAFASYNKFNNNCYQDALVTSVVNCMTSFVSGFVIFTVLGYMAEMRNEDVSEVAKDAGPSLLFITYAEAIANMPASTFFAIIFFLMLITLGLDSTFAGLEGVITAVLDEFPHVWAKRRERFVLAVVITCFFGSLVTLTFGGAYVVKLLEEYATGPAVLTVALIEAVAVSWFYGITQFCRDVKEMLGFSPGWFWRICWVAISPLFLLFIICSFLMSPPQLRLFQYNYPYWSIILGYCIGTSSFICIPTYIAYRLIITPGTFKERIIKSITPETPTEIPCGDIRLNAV

In general, pKi refers to the negative decadic logarithm of the Ki, by convention in mol/L. The low end stands for a large Ki, the high end for a small Ki. Turning to `CNCC[C@H](Oc1cccc2c(O)c(OC)ccc12)c1cccs1`, the pKi in assay [1] is 6.58; in assay [2], 6.04; in assay [3], 5.55.

In the case of `CNCC[C@H](Oc1cccc2cc(O[C@@H]3O[C@H](C(=O)O)[C@@H](O)[C@H](O)[C@H]3O)ccc12)c1cccs1`, the pKi in assay [1] is 5.84; in assay [2], 5.26; in assay [3], less than 5.00.

For the compound `CNCC[C@H](Oc1ccc(O[C@@H]2O[C@H](C(=O)O)[C@@H](O)[C@H](O)[C@H]2O)c2ccccc12)c1cccs1`, the pKi is less than 5.00 in assay [1], less than 5.00 in assay [2] and 5.45 in assay [3].

In the case of `CNCC[C@H](Oc1cccc2c(O[C@@H]3O[C@H](C(=O)O)[C@@H](O)[C@H](O)[C@H]3O)c(O[C@@H]3O[C@H](C(=O)O)[C@@H](O)[C@H](O)[C@H]3O)ccc12)c1cccs1`, the pKi in assay [1], in assay [2] and in assay [3] was less than 5.00 throughout.

In the case of `CNCC[C@H](Oc1cccc2c(O[C@@H]3O[C@H](C(=O)O)[C@@H](O)[C@H](O)[C@H]3O)c(OC)ccc12)c1cccs1`, the pKi in assay [1], in assay [2] and in assay [3] was less than 5.00 throughout.

On to `CNCC[C@H](Oc1cccc2c(O)cccc12)c1cccs1`, for which the pKi was 7.74 in assay [4], 8.02 in assay [5] and 6.62 in assay [6].

With `CNCC[C@H](Oc1cccc2c(OC)c(O)ccc12)c1cccs1`, the pKi was 6.63 in assay [4], 8.44 in assay [5] and 6.45 in assay [6].

As for `CNCC[C@H](Oc1ccc(O)c2ccccc12)c1cccs1`, the pKi was 7.01 in assay [4], 7.19 in assay [5] and 6.89 in assay [6].

With `CNCC[C@H](Oc1cccc2cc(O)ccc12)c1cccs1`, the results for the pKi in assay [4], in assay [5] and in assay [6] were 8.33, 8.97 and 6.79, respectively.

In the case of `CNCC[C@H](Oc1cccc2c(OS(=O)(=O)O)c(OC)ccc12)c1cccs1`, the pKi was 5.51 in assay [1], less than 5.00 in assay [2] and less than 5.00 in assay [3].

For the compound `CNCC[C@H](Oc1cccc2c(O)c(O)ccc12)c1cccs1` (stereo in doubt; form 1), the results for the negative-log Ki (pKi) in assay [1], in assay [2] and in assay [3] were 7.50, 6.26 and less than 5.00, respectively.

Consider `CNCC[C@H](Oc1cccc2c(O)c(O)ccc12)c1cccs1` (stereo in doubt; form 2), for which the results for the pKi in assay [1], in assay [2] and in assay [3] were 6.92, 6.16 and 5.14, respectively.
